In this experiment the target is Hematopoietic prostaglandin D synthase (Homo sapiens, UniProt O60760). Briefly: Binding affinity to full length recombinant human N-terminal His6-tagged H-PGDS expressed in Escherichia coli BL21(DE3) by SPR analysis. In general terms: In SPR one partner is held on a chip, and binding of the other changes the refractive index at the surface.
Chain of Hematopoietic prostaglandin D synthase (O60760 whole entry): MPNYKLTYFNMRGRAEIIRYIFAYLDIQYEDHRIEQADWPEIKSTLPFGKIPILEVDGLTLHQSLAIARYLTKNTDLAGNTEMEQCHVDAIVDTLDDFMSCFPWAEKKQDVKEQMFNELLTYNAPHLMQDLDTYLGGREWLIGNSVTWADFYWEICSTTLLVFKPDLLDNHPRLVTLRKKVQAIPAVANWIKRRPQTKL

In general, Kd refers to the equilibrium constant for the complex coming apart. Consider `O=C(Nc1ccc(N2CCC(C(=O)N3CCOCC3)CC2)cc1)c1cnc(Oc2ccccc2)nc1`, for which the Kd came out at 0.37 nM.

In the case of `O=C(Nc1ccc(N2CCCC2=O)cc1)c1cnc(-c2ccccn2)nc1`, the Kd came out at 0.14 nM.

These data come from ChEMBL document CHEMBL4229539, “Characterization of crystal water molecules in a high-affinity inhibitor and hematopoietic prostaglandin D synthase complex by interaction energy studies” (Bioorg Med Chem, 2018).
